Measurements taken from US20260207624A1, “COADMINISTRATION OF ESTROGEN WITH ESTROGEN RECEPTOR MODULATOR OR DEGRADER OR ER TARGETED PROTAC FOR THE TREATMENT OF ESTROGEN RESPONSIVE CANCERS” (Duke University, priority 2022, published 2026).
Entries after “also recorded” stand apart in the source; their conditions may differ. One block for each compound: values may come before it.

Legend:
A7C11 mammary tumors = experiment: A7C11 mammary tumor growth in C57BL6 mice receiving placebo or estradiol; type: in vivo, mouse; settings: for effect on tumor growth, fulvestrant alone: mice lacking estrogen exposure
Description: FIGS. 11a-11b. […] 2 days later mice were subdivided to receive treatment with vehicle or fulvestrant (25, 50 or 100 mg/kg sc q5d). Average tumor volume throughout treatment (FIG. 11A) and uterine weight (FIG. 11B) at necropsy are presented. Placebo and E2+Veh groups in (FIG. 11A) are common between graphs to facilitate comparison. * p<0.05, 2-way (FIG. 11A) or 1-way (FIG. 11B) ANOVA followed by Tukey multiple comparison test. […]
(§1) Prior to implantation into animals, BPD6, E0771, and A7C11 cells were cultured in DMEM media supplemented with 8% fetal bovine serum, non-essential amino acids and sodium pyruvate. Cells were trypsinized and injected in phosphate buffered saline.
For all experiments, mice were ovariectomized under anesthesia at 7 weeks of age and were provided placebo or estrogen (2.72 mcg/mL) treatment in drinking water throughout the remainder of the experiment. 7 to 10 days after surgery 0.5×10^6 BPD6melanoma cells or E0771 (0.2×10^6) or A7C 11 (0.4×10^5) mammary cancer cells per mouse were injected subcutaneously (BPD6) or orthotopically (A7C11 or E0771) into the axial mammary gland. Tumor growth was monitored by caliper measurement at least 3× weekly and was calculated as L×W2×0.5. For those mice receiving treatment with SERDs, mice were randomized to treatment 2 days after tumor implantation. 3574 (camizestrant) and 3964 were administered PO QD (by mouth every day) formulated in 5% DMSO/20% hydroxypropyl-b-cyclodextrin. Fulvestrant was administered SC Q5D in 10% DMSO/[…]. […]

BPD6 melanoma tumors = experiment: BPD6 tumor growth in mice with ER ablated in macrophages (LysMCre+) or littermate controls; type: in vivo, mouse
Description: FIG. 5. TUMOR GROWTH IS REPRESSED WITH ESTROGEN AND A BRAIN-EXCLUDED SERD. FIG. 5 is a graph of tumor growth for BPD6 tumors with or without ER for the various indicated drug treatments. […] An analogous experiment to that presented in FIGS. 2A-2B and FIGS. 3A-3B was conducted in mice in which ER expression in macrophages was ablated using a promoter (LysM) to drive expression of the Cre enzyme to delete this receptor specifically in this cell type in mice having a floxed allele of ER. BPD6 melanoma tumors were implanted subcutaneously into Cre+ (ER ablated in macrophage) or littermate (LM, phenotypically wild type) mice that had been ovariectomized and then assigned to placebo or E2 treatment.
(§2) For all experiments, mice were ovariectomized under anesthesia at 7 weeks of age and were provided placebo or estrogen (2.72 mcg/mL) treatment in drinking water throughout the remainder of the experiment. 7 to 10 days after surgery 0.5×10^6 BPD6melanoma cells or E0771 (0.2×10^6) or A7C 11 (0.4×10^5) mammary cancer cells per mouse were injected subcutaneously (BPD6) or orthotopically (A7C11 or E0771) into the axial mammary gland. Tumor growth was monitored by caliper measurement at least 3× weekly and was calculated as L×W2×0.5. For those mice receiving treatment with SERDs, mice were randomized to treatment 2 days after tumor implantation. 3574 (camizestrant) and 3964 were administered PO QD (by mouth every day) formulated in 5% DMSO/20% hydroxypropyl-b-cyclodextrin. Fulvestrant was administered SC Q5D in 10% DMSO/95% corn oil.
It was previously determined that for some cancer subtypes, including melanoma, one mechanism by which estrogens modulate tumor growth is by promoting a pro-tumor anti-inflammatory M2-like phenotype in the tumor infiltrating macrophages. Using a genetic model employing Cre-Lox technology to specifically delete estrogen receptor in myeloid cells (including macrophages), it was previously determined that loss of estrogen receptor expression in this immune cell population results in the loss of estrogen modulation of tumor growth in these tumors. […] BOD6 tumors were implanted in ovariectomized ERflox/flox/LysMCre+ or ERflox/flox mice that received placebo or estradiol treatment. Mice were further randomized to receive vehicle or SERD 3574 (10 mg/kg po qd; by mouth every day). Average tumor volume +/−SEM was determined. Significance (p<0.05) was determined by 2-way ANOVA followed by Tukey's multiple comparison test.

BPD6 melanoma cells = experiment: BPD6 melanoma tumor growth in ovariectomized mice receiving placebo or E2; type: in vivo, mouse; settings: BPD6 tumors
Description: as §1, §2
(§3) At the conclusion of tumor measurement (approximately 2 weeks or when tumor reached 1.5-2 cm^3 volume), mice were euthanized by CO2 exposure followed by decapitation. Uteri were removed at necropsy and weighed as a measure of estrogen stimulation.
(§4) To further explore the role of brain-expressed ER in tumor growth in the periphery, 2 SERDs were used with unique pharmacokinetics. […] ER-negative BPD6 melanoma cells were implanted into ovariectomized mice receiving either placebo or estradiol (E2) treatment in drinking water. After 48 hours, mice were randomized to receive vehicle (veh) or selective estrogen receptor degrader 3574 (10 mg/kg po qd; by mouth every day). Average tumor volume +/−SEM at each day of measurement was determined. Significance (p<0.05) was determined by 2-way ANOVA followed by Tukey's multiple comparison test. […] Treatment with anti-estrogens reversed this estradiol stimulation of tumor growth. E2 treated groups are included FIGS. 3A-3B.
To further explore the relationship between brain exposure to SERDs and tumor response, a second melanoma experiment was conducted in which BPD6 tumors were implanted into ovariectomized mice receiving vehicle or estradiol treatment. These groups were further subdivided to receive vehicle or treatment with 25, 50, or 100 mg/kg fulvestrant.

E0771 mammary tumors = experiment: E0771 mammary tumor growth in ovariectomized mice receiving placebo or E2; type: in vivo, mouse
Description: as §1, §2, §3
Analogous to the experiment in Example 4, E0771 mammary tumors were implanted in ovariectomized mice receiving E2 or placebo treatment.

uterus = experiment: Uterine wet weight at necropsy as measure of estrogen stimulation; type: in vivo, mouse
Description: as §2, §3, §4

[1] = Brain penetration of the SERDs (pharmacokinetics); settings: stated as a property of the SERD, no test described
[2] = Cre- littermate control (LM) mice of the brain-ERKO experiment, E2 in drinking water

SMILES: C[C@]12CC[C@@H]3c4ccc(O)cc4CC[C@H]3[C@@H]1CC[C@@H]2O [E2, 17β-estradiol]
effect of E2 on tumor growth vs placebo treated control (A7C11 mammary tumors; [2]): accelerated the growth of the tumors
effect on tumor growth (A7C11 mammary tumors; estradiol (2.72 mcg/mL drinking water) and vehicle co-administered): increase in A7C11 tumor growth
effect of E2 on tumor growth (BPD6 melanoma tumors; Cre+ mice (ER ablated in macrophage)): without significant effect on tumor growth
tumor volume as compared to the placebo control (BPD6 melanoma tumors; Cre- LM control mice, E2 treatment): 2 fold
effect of E2 on tumor growth vs placebo treated control (BPD6 melanoma cells; [2]): accelerated the growth of the tumors
increase in tumor growth as compared to placebo/vehicle treatment (BPD6 melanoma cells; ovariectomized wild-type mice, agent alone (FIG. 2B)): 3 fold
effect of E2 on tumor growth vs placebo treated control (E0771 mammary tumors; [2]): accelerated the growth of the tumors
tumor volume relative to placebo control (E0771 mammary tumors; E2 treatment alone (FIG. 4A)): approximately 2 fold
increase in uterine wet weight (uterus; estrogen treatment vs placebo, BPD6 tumor bearing ovariectomized mice (FIG. 2A)): ~10 fold

SMILES: Oc1ccc2c(c1)CC[C@H](c1ccccc1)[C@@H]2c1ccc(OCCN2CCCC2)cc1 [lasofoxifene]
effect on tumor growth as compared to the placebo/vehicle control group (A7C11 mammary tumors; 3 mg/kg lasofoxifene po qd co-administered with estradiol): repression of tumor growth

SMILES: C[C@]12CC[C@@H]3c4ccc(O)cc4C[C@@H](CCCCCCCCC[S+]([O-])CCCC(F)(F)C(F)(F)F)[C@H]3[C@@H]1CC[C@@H]2O (stereo partly drawn) [fulvestrant]
effect on estrogen induction of tumor growth (A7C11 mammary tumors; estradiol treated mice, 25, 50, or 100 mg/kg fulvestrant): similarly inhibited estrogen induction of A7C11 tumor growth
effect on tumor growth, fulvestrant alone (A7C11 mammary tumors; 25 mg/kg fulvestrant sc q5d): dose not affect A7C11 tumor growth
effect on tumor growth, fulvestrant alone (A7C11 mammary tumors; 50 or 100 mg/kg fulvestrant sc q5d): tumor growth comparable to that observed for the estrogen control group
effect on E2 stimulation of tumor growth (BPD6 melanoma cells; E2-treated mice, fulvestrant 25, 50, or 100 mg/kg): reversed E2 stimulation of tumor growth
effect on tumor growth, fulvestrant alone (BPD6 melanoma cells; placebo treated mice, fulvestrant 100 mg/kg): growth similar to that of the estrogen/vehicle control; also recorded: induced tumor growth itself
effect on estrogen-dependent increases in uterine weight (uterus; A7C11 tumor bearing mice, fulvestrant 25, 50, or 100 mg/kg sc q5d): similarly repressed estrogen-dependent increases in uterine weight

brain penetration [1]: brain excluded
SMILES: C[C@@H]1Cc2c(ccc3[nH]ncc23)[C@@H](c2ccc(NC3CN(CCCF)C3)cn2)N1CC(F)(F)F [compound 3574, camizestrant]
effect on tumor growth, SERD alone (A7C11 mammary tumors; animals lacking estrogen exposure (FIGS. 12B-12D)): did not impact tumor growth
effect on tumor growth, SERD together with estrogen (A7C11 mammary tumors; estradiol treated mice (FIGS. 12B-12D)): further repressed tumor growth
effect on tumor growth vs Cre+ mice receiving E2 alone (BPD6 melanoma tumors; Cre+ mice, 3574 10 mg/kg po qd and E2 together): significantly inhibited tumor growth
effect on growth of tumors, SERD alone (BPD6 melanoma tumors; placebo treated Cre+ mice, 3574 10 mg/kg po qd): did not affect the growth of tumors
effect on E2 induced tumor growth (BPD6 melanoma cells; 3574 10 mg/kg po qd together with E2, 10 mg/kg): suppressed tumor growth below that observed in the placebo/vehicle treated control; also recorded: reversed E2 induced tumor growth, but in fact significantly repressed tumor growth as compared to placebo treatment alone
effect on tumor growth, SERD alone (BPD6 melanoma cells; placebo treated (no E2) mice, 3574 10 mg/kg po qd): without effect on tumor growth
effect on E2 stimulation of tumor growth (E0771 mammary tumors; E2-treated mice, 3574 (10 mg/kg)): reversed E2 stimulation of tumor growth
effect on E2 stimulation of the uterus (post-mortem uterine wet weight) (uterus; E0771 tumor bearing mice, all doses of the SERD): reversed E2 stimulation of the uterus
effect on E2 stimulation of uterine wet weight (uterus; SERD with E2, BPD6 tumor bearing ovariectomized mice): reversed E2 stimulation of uterine wet weight
effect on uterine weight, SERD alone (ER agonist activity) (uterus; placebo together with SERD, BPD6 tumor bearing ovariectomized mice): did not affect uterine weight
